Source: patent publication US9878007B2, “Syndecan peptides and polypeptides as inhibitors of vascular endothelial growth factor receptor-2 (VEGFR2) and very late antigen-4 (VLA-4)” (Wisconsin Alumni Research Foundation, priority 2015, dated 2018)
No end group written: not given here.

Experiments:
[1] = target: T1, VEGFR2 (Homo sapiens, UniProt P35968); assay: GST pull down assay: capture of VEGFR2 by GST-S1ED; assay type: binding; conditions: HPSE^low cell lysates; peptide 30 M [sic]
T1 construct: endogenous in cells; host or cells: CAG human myeloma cells (HPSE^low = empty vector; HPSE^high = human HPSE cDNA)
Description: FIGS. 6A-G. Peptides derived from the active site in Sdc1 activate or inhibit adhesion and invasion. (FIG. 6A) Transwell migration assays towards FN (for 16 hrs) were performed for HPSE low or high cells in the presence of 0, 0.3, 3, and 30 μM of S1ED^210-240. Cells migrating to the bottom side of the filter were counted from five random images for each treatment. (FIG. 6B) The sequence of S1ED210-240 is shown (SEQ ID NO: 3), as well as […] truncation mutants of the peptide (SEQ ID NOs: 5, 2, 4 and 7). Amino acids shown in red appear necessary for the spreading and invasive activity. (FIG. 6C) Images of HPSE^low and HPSE^high cells plated on FN for 2 hr. (FIG. 6D) HPSE^low cells were treated with 0, 0.3, 3, 10 and 30 μM of S1ED^210-236, S1ED^210-233, or S1ED^214-240, plated on FN for 2 hr, fixed and stained with fluorescent phalloidin. Cells from five random images were quantified for cell attachment and cell spreading. (FIG. 6E) HPSE^high cells were treated with 0, 3, 10, and 30 μM of S1ED^210-236, S1ED^210-233, and S1ED^214-240, plated on FN for 2 hr, then fixed, imaged and quantified as in FIG. 6D. (FIG. 6F) Transwell migration assays towards FN (for 16 hr) were performed for HPSE^low or HPSE^high cells in the presence of 30 μM of S1ED^210-236, S1ED^210-233, S1ED^214-240 and Vandetanib. (FIG. 6G) HPSE^low cell lysates were incubated overnight with glutathione beads coated with GST or GST-S1ED in the absence or presence of 30 μM of S1ED^210-236, S1ED^210-233, and S1ED^214-240. Capture of VLA-4 or VEGFR2 was detected by immunoblotting. Sequences in FIG. 6B are 210-240 (SEQ ID NO: 3), 210-236 (SEQ ID NO: 2), 210-233 (SEQ ID NO: 4), 214-240 (SEQ ID NO: 5) and 214-236 (SEQ ID NO: 7).
CAG cells were washed with CMF-PBS and then lysed for 20 min on ice in lysis buffer. Cell debris was removed by centrifugation at 13000 rpm for 20 min at 4° C. Whole cell lysates were then incubated at 4° C. overnight with either 3 μM GST or 3 μM GST-S1ED in the absence or presence of 1 μM, 3 μM, and 10 μM S1ED^210-240 peptide. GST or GST-S1ED was captured by addition of glutathione Sepharose and the beads were washed with ice-cold lysis buffer and CMF-PBS, prior to addition of SDS-PAGE sample buffer and analyszed by electrophoresis and western blotting as described previously.

[2] = test system: CAG myeloma cells; assay: Cell spreading / attachment assay of CAG myeloma cells on FN or VCAM-1; assay type: cell-based, human; conditions: on FN, 2 hr; for HPSE^high cell adhesion / HPSE^high cell spreading: 0, 3, 10 and 30 μM peptide; for HPSE^low cell adhesion: high concentrations (30 μM)
[3] = test system: HMEC-1 cells; assay: Transwell migration / invasion assay of HMEC-1 cells; assay type: cell-based; conditions: 16 hr
Description: FIGS. 8A-H. HPSE mediated the Sdc1-coupled VEGFR2 complex in endothelial cells induces angiogenesis. (FIG. 8A) Lysates from HPSE^low, HPSE^high and HMEC-1 cells are probed by immunoblotting for expression of HPSE. (FIG. 8B) HMEC-1 cells were seeded at equal density and grown in serum-free media for 24 hr in the absence or presence of 125 μg/ml of the HPSE inhibitor SST0001. After 24 hr, conditioned media were harvested, and the level of shed Sdc1 in the conditioned medium from each condition was determined by immunoblotting. (FIG. 8C) HMEC-1 cell lysate was incubated overnight with glutathione beads coated with GST or GST-S1ED. Capture of VLA-4 or VEGFR2 was detected by immunoblotting. (FIG. 8D) HMEC-1 cells were plated on IIICS for 3 hr and double stained for VLA-4 and Sdc1, VEGFR2 and Sdc1, or VLA-4 and VEGFR2. (FIG. 8E) HMEC-1 cells were treated with DMSO, VLA-4 blocking antibody P1H4, β1-integrin blocking antibody mAb13, 10 μg/ml MMP9 blocking antibody, 125 μg/ml HPSE inhibitor SST0001, Vandetanib, VEGFR2 blocking antibody, 30 μM S1ED^210-233 or 30 μM S1ED^214-240 and then plated on IIICS. Images were taken from random field with 200× magnification for counting attached and spread cells. (FIG. 8F) HMEC-1 cells were plated on IIICS in the presence of 10 μM of S1ED^210-236, S1ED^210-233, S1ED^215-240, and S1ED^214-240. Lysates were probed on immunoblots with antibodies against pY^1175 VEGFR2 and VEGFR2. (FIG. 8G) Transwell migration assays towards IIICS (for 16 hr) were performed for HMEC-1 cells in the presence of P1H4, SST0001, Anti-MMP9, Vandetanib, S1ED^210-236, S1ED^210-233, and S1ED^214-240. Images were taken from random field with 200× magnification for counting migrated cells. (FIG. 8H) A 96-well plate coated with 50 μl Matrigel containing 100 μg/ml IIICS per well was solidified at 37° C. for 2 hrs. […]
The bottom chambers of Transwell filter chambers (8 μm pores; Corning) were coated with 40 μg/ml of FN. […] Cells from at least five random fields were counted.

[4] = test system: HMEC-1 cells; assay: In vitro tube formation assay of HMEC-1 cells on Matrigel; assay type: cell-based; conditions: 24 hrs, 10 μM peptides
Description: FIGS. 8A-H. HPSE mediated the Sdc1-coupled VEGFR2 complex in endothelial cells induces angiogenesis. (FIG. 8A) Lysates from HPSE^low, HPSE^high and HMEC-1 cells are probed by immunoblotting for expression of HPSE. (FIG. 8B) HMEC-1 cells were seeded at equal density and grown in serum-free media for 24 hr in the absence or presence of 125 μg/ml of the HPSE inhibitor SST0001. After 24 hr, conditioned media were harvested, and the level of shed Sdc1 in the conditioned medium from each condition was determined by immunoblotting. (FIG. 8C) HMEC-1 cell lysate was incubated overnight with glutathione beads coated with GST or GST-S1ED. Capture of VLA-4 or VEGFR2 was detected by immunoblotting. (FIG. 8D) HMEC-1 cells were plated on IIICS for 3 hr and double stained for VLA-4 and Sdc1, VEGFR2 and Sdc1, or VLA-4 and VEGFR2. (FIG. 8E) HMEC-1 cells were treated with DMSO, VLA-4 blocking antibody P1H4, β1-integrin blocking antibody mAb13, 10 μg/ml MMP9 blocking antibody, 125 μg/ml HPSE inhibitor SST0001, Vandetanib, VEGFR2 blocking antibody, 30 μM S1ED^210-233 or 30 μM S1ED^214-240 and then plated on IIICS. Images were taken from random field with 200× magnification for counting attached and spread cells. (FIG. 8F) HMEC-1 cells were plated on IIICS in the presence of 10 μM of S1ED^210-236, S1ED^210-233, S1ED^215-240, and S1ED^214-240. Lysates were probed on immunoblots with antibodies against pY^1175 VEGFR2 and VEGFR2. (FIG. 8G) Transwell migration assays towards IIICS (for 16 hr) were performed for HMEC-1 cells in the presence of P1H4, SST0001, Anti-MMP9, Vandetanib, S1ED^210-236, S1ED^210-233, and S1ED^214-240. Images were taken from random field with 200× magnification for counting migrated cells. (FIG. 8H) A 96-well plate coated with 50 μl Matrigel containing 100 μg/ml IIICS per well was solidified at 37° C. for 2 hrs. HMEC-1 cells (2.5×10^4 cells/well) were seeded into the plate and cultured in media containing VEGF, SST0001, 10 μM of S1ED^210-236, S1ED^210-233, S1ED^215-240, and S1ED^214-240 for 24 hrs. Enclosed capillary networks of tubes were taken from random field with 200× magnification.

T1 sequence (P35968 20-1356): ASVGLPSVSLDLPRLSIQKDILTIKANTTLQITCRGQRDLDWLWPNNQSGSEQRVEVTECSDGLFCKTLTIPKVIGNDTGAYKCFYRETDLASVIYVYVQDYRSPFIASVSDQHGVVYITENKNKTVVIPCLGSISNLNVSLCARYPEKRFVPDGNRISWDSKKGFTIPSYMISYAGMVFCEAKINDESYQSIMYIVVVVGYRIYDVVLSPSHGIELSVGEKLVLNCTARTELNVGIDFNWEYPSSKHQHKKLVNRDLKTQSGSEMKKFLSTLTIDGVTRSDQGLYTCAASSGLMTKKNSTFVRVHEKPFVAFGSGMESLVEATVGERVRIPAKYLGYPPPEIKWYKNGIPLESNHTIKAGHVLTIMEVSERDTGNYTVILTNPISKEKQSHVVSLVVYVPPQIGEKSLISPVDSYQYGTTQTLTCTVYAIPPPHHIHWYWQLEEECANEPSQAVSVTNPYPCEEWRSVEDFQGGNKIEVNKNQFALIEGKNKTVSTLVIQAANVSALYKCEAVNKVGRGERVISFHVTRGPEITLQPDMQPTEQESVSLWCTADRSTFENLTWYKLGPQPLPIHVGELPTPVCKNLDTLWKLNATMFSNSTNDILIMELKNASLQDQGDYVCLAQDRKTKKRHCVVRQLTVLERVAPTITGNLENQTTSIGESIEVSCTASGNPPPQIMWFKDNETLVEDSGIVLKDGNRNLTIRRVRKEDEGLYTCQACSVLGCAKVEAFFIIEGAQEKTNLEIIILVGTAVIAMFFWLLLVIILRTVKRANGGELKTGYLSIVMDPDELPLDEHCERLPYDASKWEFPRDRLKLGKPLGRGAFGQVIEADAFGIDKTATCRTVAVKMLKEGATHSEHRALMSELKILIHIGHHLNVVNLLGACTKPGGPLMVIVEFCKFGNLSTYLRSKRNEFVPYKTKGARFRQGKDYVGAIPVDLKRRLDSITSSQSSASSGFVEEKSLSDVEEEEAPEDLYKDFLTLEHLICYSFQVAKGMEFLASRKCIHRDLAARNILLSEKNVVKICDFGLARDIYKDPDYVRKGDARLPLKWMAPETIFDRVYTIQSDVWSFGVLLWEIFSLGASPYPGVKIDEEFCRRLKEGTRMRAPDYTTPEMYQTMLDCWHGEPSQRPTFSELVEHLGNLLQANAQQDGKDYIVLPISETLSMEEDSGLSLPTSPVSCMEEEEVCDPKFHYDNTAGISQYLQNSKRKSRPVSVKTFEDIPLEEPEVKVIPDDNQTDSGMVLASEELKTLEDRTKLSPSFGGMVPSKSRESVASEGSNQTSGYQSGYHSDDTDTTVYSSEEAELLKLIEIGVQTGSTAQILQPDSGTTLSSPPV

| Substance | competition for capture of VEGFR2 by GST-S1ED [1] | HPSE^high cell adhesion [2] | HPSE^high cell spreading [2] | HPSE^low cell adhesion [2] | invasion of HMEC-1 cells [3] | tube formation by HMEC-1 cells [4] | HPSE^low cell spreading ([2]; 0, 0.3, 3, 10 and 30 μM peptide) |
| --- | --- | --- | --- | --- | --- | --- | --- |
| S1ED^210-233: syndecan-1 ectodomain peptide, residues 210-233 (SEQ ID NO: 4) (DFTFETSGENTAVVAVEPDRRNQS) | competes for capture of VEGFR2 | induce cell detachment | block cell spreading when added at increasing concentrations | block cell adhesion | all block invasion | blocks tube formation | – |
| DFTFETSGENTAVVAVEPDRRNQSPVD [S1ED^210-236] | effectively blocks capture of both receptors | induce cell detachment | block cell spreading when added at increasing concentrations | block cell adhesion | all block invasion | blocks tube formation | induces HPSE^low cell spreading equal to that observed with S1ED^210-240 |
